In brackets after ≈: the same amount, converted by molar mass. Where two headings read alike, the source gives them in different places. Square brackets hold non-standard residues; d marks the D form. Ends that are not written are not given here. Peptide text beside a SMILES is read from it.
Experiments:
[1] = XTT proliferation (cytotoxicity) assay, normal fibroblasts; type: cell-based, mouse; conditions: mouse, NIH-3T3 normal mouse fibroblasts, read-out: Lethal Concentration (LC50)
Protocol: (§1) The CL1 human prostate carcinoma (PC) cell line is an androgen-independent (AI) subclone of LNCaP cell line, which was generated by culturing androgen-dependent (AD) LNCaP cells in charcoal-stripped, […], as described (Patel et al. 2000). 22RV1 human PC cells are AI sub-clones of the AD prostatic adenocarcinoma CWR22 xenograft (Sramkoski et al. 1999). CL1 and 22RV1 (ATCC, USA) were grown in RPMI-1640 supplemented with 10% FCS (Biological Industries, Beit Haemek, Israel). PC3 and DU145 are androgen-insensitive (AI) (non-responsive), invasive human prostate cancer cell lines. NIH-3T3 mouse fibroblast cell lines (ATCC, USA) were grown in DMEM supplemented with 10% BS. Murine Lewis lung carcinoma (LLC) cell lines were also grown in DMEM medium supplemented with 10% fetal calf serum and antibiotics under the same conditions as above.
(§2) The anticancer activity of the diastereomers 1, 5 and 11-16, 36-39, 42 and 44 was examined against human CL1 prostate cancer, murine LLC (Lewis lung carcinoma), DU 145 and PC3 cell lines. The cell selectivity of the diastereomeric peptides was also studied by examining their effect on NIH-3T3 normal mouse fibroblasts cell line.
(§3) A 96-well plate (Falcon) was used for the XTT proliferation assay. Cancer cells were grown for 24 hours (day 1) in RPMI-1640 medium ([…] cells/100 μl for LLC, CL1, 22RVI, DU 145 and PC3, respectively) supplemented with 10% fetal calf serum and antibiotics, at 37° C., in humidified atmosphere at 5% CO2 and 95% air, resulting in growth medium pH of 7.4. NIH-3T3 fibroblast cells (1×10^4 cells/100 μl) were grown in DMEM medium supplemented with 10% bovine calf serum and antibiotics under the same conditions as described above for the cancerous cells. Wells in the last two rows served as blanks (medium only, for measuring the background color of the medium) and 100% survival controls (cells and medium only without treatment), respectively.
(§4) In day 2, the peptides were dissolved in sterile PBS to a concentration of 200 μM (or 500 μM). The medium in the assay wells was replaced with 100 μl serum free medium. For the assays at pH 6, the medium was initially concentrated (×5 or ×10) and then diluted with double distilled water and addition of sodium carbonate. Before reaching the correct dilution, the medium was adjusted to pH 6 and then more water was added to reach the final dilution. The cells were grown in physiological pH, and the acidic pH was used only during the 24 hours incubation with the peptides. A sign for the correct acidity was a light yellow color of the medium. In line A of the plate, 160 μl of serum free medium was added, if the initial peptide concentration was 500 μM.
(§5) Peptide solutions, 100 μl (or 40 μl) were added to each assay well in line A, such that the final concentration of the peptide was […] and the volume 200 μl. The medium in the wells was mixed with multichannel pipette 5 times and 100 μl of it were transferred to the next row of wells (line B), to give a peptide concentration of 50 μM. The double dilution of the peptides continued downstream the plate in the same manner. The plates were then incubated for 24 h.
(§6) In day 3, XTT reaction solution was prepared by adding to 100 μl aliquots of activation solution (sodium 3′-[1-(phenyl-aminocarbonyl)-3,4-tetrazolium]-bis(4-methoxy-6-nitro) benzene sulfonic acid hydrate and N-methyl dibenzopyrazine methyl sulfate; mixed in a proportion of 50:1) (protected from light and kept in −20° C.), the substrate. 50 μl of XTT reaction solution were added to each well and the plates were incubated for 2 hours (37° C. and 5% CO2+95% air. In cases the incubation was not enough for the creation of the color, it was extended for up to 24 hours). The optical density was read at wavelength of 450 nm in an ELISA plate reader. Cell viability was determined relative to the control and final results were recorded. The results were confirmed using replications in at least three independent experiments. […]

[2] = tested on: CL1 human prostate carcinoma cell line; experiment: XTT proliferation (cytotoxicity) assay, CL1; type: cell-based
Protocol: as §1, §2, §3, §4, §5, §6

[3] = tested on: 22RV1 human PC cells; experiment: XTT proliferation (cytotoxicity) assay, 22RV1; type: cell-based
Protocol: as §1, §3, §4, §5
In day 3, XTT reaction solution was prepared by adding to 100 μl aliquots of activation solution (sodium 3′-[1-(phenyl-aminocarbonyl)-3,4-tetrazolium]-bis(4-methoxy-6-nitro) benzene sulfonic acid hydrate and N-methyl dibenzopyrazine methyl sulfate; mixed in a proportion of 50:1) (protected from light and kept in −20° C.), the substrate. 50 μl of XTT reaction solution were added to each well and the plates were incubated for 2 hours (37° C. and 5% CO2+95% air. In cases the incubation was not enough for the creation of the color, it was extended for up to 24 hours). The optical density was read at wavelength of 450 nm in an ELISA plate reader. Cell viability was determined relative to the control and final results were recorded. The results were confirmed using replications in at least three independent experiments. The LC50 for each peptide was obtained from the curve of cell viability versus concentration of peptide and taken from the concentration at which cell viability was 50%. The data shown in Table 1 are for only one experiment, but representative of all replications.

[4] = tested on: Murine Lewis lung carcinoma (LLC) cell line; experiment: XTT proliferation (cytotoxicity) assay, LLC; type: cell-based
Protocol: as §1, §2, §3, §4, §5, §6

[5] = tested on: DU145 human prostate cancer cell line; experiment: XTT proliferation (cytotoxicity) assay, DU145; type: cell-based
Protocol: as §1, §2, §3, §4, §5, §6

[6] = tested on: PC3 human prostate cancer cell line; experiment: XTT proliferation (cytotoxicity) assay, PC3; type: cell-based; conditions: PC3, pH 7.4, 24 h
Protocol: as §1, §2
A 96-well plate (Falcon) was used for the XTT proliferation assay. Cancer cells were grown for 24 hours (day 1) in RPMI-1640 medium (5×10^3, 7×10^3, 1×10^4 and 7×10^3 cells/100 μl for LLC, CL1, 22RVI, DU 145 and PC3, respectively) supplemented with 10% fetal calf serum and antibiotics, at 37° C., in humidified atmosphere at 5% CO2 and 95% air, resulting in growth medium pH of 7.4. […]
In day 3, XTT reaction solution was prepared by adding to 100 μl aliquots of activation solution (sodium 3′-[1-(phenyl-aminocarbonyl)-3,4-tetrazolium]-bis(4-methoxy-6-nitro) benzene sulfonic acid hydrate and N-methyl dibenzopyrazine methyl sulfate; mixed in a proportion of 50:1) (protected from light and kept in −20° C.), the substrate. […] The optical density was read at wavelength of 450 nm in an ELISA plate reader. Cell viability was determined relative to the control and final results were recorded. […]

[7] = Acute toxicity test in mice (intravenous); type: in vivo; conditions: for mortality: mice
Protocol: Acute toxicity of peptides 1, 13 and 16 was examined by intravenously injecting mice (n=3), each with one dose per day for 2 days of 0.5 ml solution containing peptides 1, 13 or 16 at 3, 9, 15, 20 and 30 mg/kg of body weight.
A week after injecting the peptides, blood samples were taken from the survived mice. […] Thus, the peptides 13 and 16 of the invention are not toxic even when administered at concentrations considerably higher than those necessary for their anticancer activity.

[8] = tested on: NIH-3T3 normal mouse fibroblasts cell line; experiment: XTT proliferation (cytotoxicity) assay, normal fibroblasts; type: cell-based; conditions: NIH3T3, pH 7.4, 24 h
Protocol: as §1, §2, §3, §4, §5, §6

[9] = tested on: AI CL1 human PC cells xenograft; experiment: Inhibition of tumor growth in human prostate cancer xenografts, CL1; type: in vivo, nude male mice; conditions: CL1 xenograft, 1 mg/kg intratumorally, 9 doses
Protocol: (§7) (i) Inhibition of tumor growth in human prostate cancer xenografts. Subcutaneouse (s.c.) implantation of human PC cells in mice was done as previously described in Gavish et al. (Gavish et al. 2002). Briefly, 0.1 ml AI CL1 or 22RV1 human PC cells (5×10^6 cells) in Matrigel were inoculated s.c. into the dorsal side of five to six week-old nude male mice weighing 20-25 g (Harlen Co., Israel). Two weeks after cell implantation, when the tumors diameter reached ≧5 mm (denoted as day 1), the diastereomer 13 and its all L-amino acid analog peptide (at 1 mg/kg, 0.1 mM), or vehicle (PBS, pH=7.4) were injected intratumorally (dosing volume of 2.5 ml/kg) three times a week for a total of 9 doses. Tumor size was measured by a caliper and recorded twice a week during a period of 28 days. Mice were weighed and tumor weight (mg) was estimated by using the formula of length×width×depth×0.52 in mm^3, assuming the specific gravity to be 1. At the end of the treatment, the mice were killed, and the tumors were removed, photographed, and weighed. The animal experimentation was conducted according to the rules of the Institutional Animal Care and Use Committee.

[10] = tested on: 22RV1 human PC cells xenograft; experiment: Inhibition of tumor growth in human prostate cancer xenografts, 22RV1; type: in vivo, nude male mice; conditions: 22RV1 xenograft, 1 mg/kg intratumorally, 9 doses
Protocol: as §7
Serum PSA levels. Four weeks after the first treatment, blood was withdrawn from the 22RV1-inoculated mice in order to determine the level of prostate specific antigen (PSA). The blood samples were taken directly to heparin containing tubes, centrifuged, and the supernatants were stored at −20° C. The CanAg PSA EIA kit (CanAg Diagnostics) was used to determine the total PSA in the mice plasma (Gavish et al., 2002). Tumor weight and PSA levels, represented as the mean±SE, were calculated from the raw data and then subjected to Student's t test. A value of P<0.05 was considered as statistically significant.

[11] = Interaction with Matrigel matrix, analysed by RP-HPLC and mass spectroscopy; type: in vitro ADME; conditions: mixed with Matrigel matrix for one hour
[12] = i.v., 3 mg/kg, one dose per day for 2 days
[13] = i.v., 9 mg/kg, one dose per day for 2 days
[14] = i.v., 15 mg/kg, one dose per day for 2 days
[15] = i.v., 20 mg/kg, one dose per day for 2 days

Compound	CC50 at 24 h ([1]; NIH3T3, pH 6, 24 h) [µg/mL]	Lethal Concentration (LC50) ([2]; CL1, pH 7.4, 24 h) [µg/mL]	Lethal Concentration (LC50) ([3]; 22RV1, pH 6, 24 h) [µg/mL]	Lethal Concentration (LC50) ([4]; pH 7.4, 24 h) [µg/mL]	mortality [7, 12]	mortality [7, 13]	mortality [7, 14]	mortality [7, 15]	other results
CC(C)C[C@H](NC(=O)[C@H](CC(C)C)NC(=O)[C@@H](CCCCN)NC(=O)[C@H](CC(C)C)NC(=O)[C@H](CC(C)C)NC(=O)[C@H](CCCCN)NC(=O)[C@@H](CCCCN)NC(=O)[C@@H](CC(C)C)NC(=O)[C@H](CC(C)C)NC(=O)[C@@H](CCCCN)NC(=O)[C@H](CCCCN)NC(=O)[C@H](CC(C)C)NC(=O)[C@@H](CC(C)C)NC(=O)[C@H](CCCCN)NC(=O)[C@@H](N)CC(C)C)C(N)=O [Peptide 1, reference compound] (H-LK[dL]LK[dK]L[dL][dK]KLL[dK]LL-NH2)	25 (≈ 13.9 µM)	6.25	25	12.5	No mortality	No mortality	100%	100%	CC50 at 24 h ([1]; NIH3T3, pH 7.4, 24 h): 50 µg/mL (≈ 27.7 µM); Lethal Concentration (LC50) ([2]; CL1, pH 6, 24 h): 9.3 µg/mL; Lethal Concentration (LC50) ([3]; 22RV1, pH 7.4, 24 h): 12.5 µg/mL; Lethal Concentration (LC50) ([4]; pH 6, 24 h): 12.5 µg/mL; Lethal Concentration (LC50) ([5]; DU145, pH 6, 24 h): 4.7 µg/mL; Lethal Concentration (LC50) ([5]; DU145, pH 7.4, 24 h): 4.7 µg/mL; Lethal Concentration (LC50) [6]: 6.2 µg/mL; mortality ([7]; concentrations considerably higher than those necessary for anticancer activity): 100%
CC(C)C[C@H](NC(=O)[C@H](CC(C)C)NC(=O)[C@@H](Cc1c[nH]cn1)NC(=O)[C@H](CC(C)C)NC(=O)[C@H](CC(C)C)NC(=O)[C@H](Cc1c[nH]cn1)NC(=O)[C@@H](Cc1c[nH]cn1)NC(=O)[C@@H](CC(C)C)NC(=O)[C@H](CC(C)C)NC(=O)[C@@H](CCCCN)NC(=O)[C@H](Cc1c[nH]cn1)NC(=O)[C@H](CC(C)C)NC(=O)[C@@H](CC(C)C)NC(=O)[C@H](Cc1c[nH]cn1)NC(=O)[C@@H](N)CC(C)C)C(N)=O [Peptide 16] (H-LH[dL]LH[dK]L[dL][dH]HLL[dH]LL-NH2)	25 (≈ 13.5 µM)	12.5	12.5	50	No mortality	No mortality	no mortality	no mortality	Lethal Concentration (LC50) [8]: 100 µg/mL; active concentration lower than against NIH-3T3 ([2]; CL1 vs NIH-3T3 at the same pH): at least two-fold lower; mortality ([7]; i.v., 30 mg/kg, one dose per day for 2 days): No mortality; blood differential and biochemistry tests ([7]; survived mice, a week after injection): in the range of normal values
LKLLHKLLKHLLKLL-NH2 [all L-amino acid analog peptide, reference compound]	–	–	–	–	–	–	–	–	tumor weight [9]: inactive; tumor weight [10]: inactive; activity preserved upon interaction with the Matrigel matrix [11]: fully inactivated

From US20090305954A1, “HISTIDINE-CONTAINING DIASTEREOMERIC PEPTIDES AND USES THEREOF” (Yeda Research and Development Co. Ltd., priority 2005, published 2009)
